Source: patent publication US20260306491A1, “EGFR INHIBITOR FOR TREATING CANCERS COMPRISING ATYPICAL EGFR MUTATIONS” (ORIC Pharmaceuticals, Inc., priority 2023, published 2026)

How the values were obtained:
[1] = Phase 1 relative bioavailability of capsule and tablet in healthy subjects: safety; type: in vivo, human
Description: A Phase 1, open-label, single dose study was conducted in healthy human subjects to evaluate the relative bioavailability of two formulations of Compound I. The first formulation of Compound I (Treatment A) was in the form of a capsule comprising about 15 mg of Compound I in the form of a hemifumarate, while the second formulation of Compound I (Treatment B) was in the form of a tablet comprising about 10 mg of Compound I in the form of a malonate and pharmaceutically acceptable excipients. The primary objective of the study was to evaluate the relative bioavailability (BA) of Treatment A and Treatment B administered as a single oral dose under fasting conditions in healthy adult subjects. A secondary objective was to evaluate the safety and tolerability of single dose administration of Compound I Treatment B under fasting conditions. The endpoints of the study were AUC0-last, AUC0-24, AUC0-inf, AUC % extrap, Cmax, Tmax, Kel, t½, CL/F, and Vz/F for Treatment A and Treatment B. The endpoints also included Aetl-t2, Ae, CLr, Fet1-t2, and Fe from Treatment B in period 2. A secondary endpoint included treatment-emergent AEs (TEAEs), clinical laboratory tests, vital signs, and 12 lead electrocardiogram (ECGs).
Methodology: The study was conducted as an open-label, single-dose study. Screening of subjects occurred within 28 days prior to the first dosing. The study was conducted as a randomized, 2-period, crossover study to assess the relative BA of Treatment A and Treatment B. On Day 1 of Period 1 and of Period 2, a single oral dose of Treatment A or Treatment B were administered under fasting conditions. Blood samples for PK were collected pre-dose and through 216 hours post-dose. Urine samples for PK were collected pre-dose and through 48 hours post-dose from subjects randomized to Period 2 Treatment B (tablets). There was a washout period of at least 10 days between dosing in each period. Safety was monitored throughout the study by repeated clinical and laboratory evaluations. Discontinued subjects were not replaced. All 30 enrolled subjects completed the study and were included in the PK and safety analyses.
60 mg Compound I in the form of Treatment B (6×10 mg tablets) was administered at Hour 0 on Day 1 under fasting conditions along with approximately 240 mL of water after a 10-hour fast. The total duration of participation including the screening period for each subject was approximately 8 weeks. There were 2 periods of approximately 14 days each; washout phase was 10 days between both doses. 60 mg of Compound I in the form of Treatment A (4×15 mg capsules) was administered to subjects at Hour 0 on Day 1 under fasting conditions along with approximately 240 mL of water after a 10-hour fast.
Plasma samples for the analysis of Compound I were collected at the following time points relative to dosing on Day 1 of each period: pre-dose and at 0.5, 1, 2, 3, 4, 5, 6, 7, 8, 10, 12, 16, 24, 36, 48, 72, 96, 120, 144, and 216 hours post-dose. Safety was evaluated by TEAEs, clinical laboratory tests, vital signs, 12 lead ECGs, and physical examinations. An analysis of variance (ANOVA) was performed on the natural log (ln)-transformed AUC0-last, AUC0-inf, and Cmax. The ANOVA model included sequence, treatment, and period as fixed effects, and subject nested within sequence as a random effect, and included calculation of least-squares means (LSMs) as well as the difference between treatment LSMs. Ratios of LSMs were calculated using the exponentiation of the difference between treatment LSMs from the analyses on the In-transformed AUC0-last, AUC0-inf, and Cmax. […] Safety was evaluated by clinical laboratory tests, physical examination, vital signs, 12 lead ECGs, and adverse events (AEs). There was no inferential statistics performed.

[2] = Biodistribution in plasma and brain after single oral dose in female CB17 SCID mice; type: in vivo; details: mouse
Description: Female non-tumor bearing Fox Chase CB17 SCID mice were orally administered a single dose as specified in Table B1.
Brain tissues were excised and plasma was collected from all the animals receiving Compound I, or tucatinib at 1 hour, 4 hours, and 8 hours post-administration. Tucatinib was used as a reference agent. Tucatinib is a clinically approved therapy for HER2 positive breast cancer patients with brain metastases. The harvested brains were rinsed in ice-cold phosphate-buffered saline and weighed. All plasma and brain samples were stored at approximately −80° C. until thawed for LC-MS/MS analysis.
Prior to analysis, brain tissues were homogenized 1:5 with phosphate buffer. Average free brain-to-free plasma ratio (Kp,uu) was calculated from individual mice by using total concentration values determined in the brain and plasma at individual time points, or by calculating the area under the curve (AUC) and converting the values to free concentration (or AUC) with in vitro binding parameters determined in the brain (fu,b) and plasma (fu,p) as follows:
Kp,uu=Brain Concentration (or AUC)*fu,b/Plasma Concentration (or AUC)*fu,p.
Free fraction in the brain (fu,b) and in plasma (fu,p) was determined with equilibrium dialysis as follows: The brain tissue homogenate or plasma from the mice were spiked to yield a final concentration of 1 μM Compound I, or 5 μM tucatinib. Compound I and tucatinib were incubated in equilibrium dialysis plate on a shaking incubator at 37° C. with 5% CO2 at 450 rpm for 8 hours and 24 hours, respectively. Following the incubation, aliquots of the matrix and the buffer samples were sampled and the concentration of Compound I, or tucatinib were determined.
where fu,b,d is fraction unbound determined with 20% brain homogenate.

[3] = 60 mg single oral, healthy subjects
[4] = 60 mg single oral, healthy subjects (30)
[5] = overall, 60 mg single oral, mild

For `C=CC(=O)Nc1cc(Nc2cc(N3OCC[C@@H]3c3cc(F)cc(F)c3)ncn2)c(OC)cc1N1CCC(N2CCN(C3CC3)CC2)CC1` [Compound I, N-[2-[4-(4-cyclopropyl-1-piperazinyl)-1-piperidinyl]-5-[[6-[(3R)-3-(3,5-difluorophenyl)-2-isoxazolidinyl]-4-pyrimidinyl]amino]-4-methoxyphenyl]-2-propenamide], the Safety and tolerability ([1]; 60 mg single oral (capsule or tablet), fasting, healthy subjects) was “generally safe and well tolerated”, the “Clinical laboratory tests, vital signs, 12-lead ECG, physical examination” value [1, 3] was “no clinically significant findings or trends” and the “Deaths, serious adverse events (SAEs), or TEAEs leading to discontinuation” value [1, 3] was “no deaths, serious adverse events (SAEs), or TEAEs leading to subject discontinuation”. The “Severe TEAEs” value [1, 4] was “No severe TEAEs were reported”, the “Subjects reporting TEAEs” value [1, 4] was 47% and the “Subjects reporting TEAEs, number” value [1, 4] was 14 n. The “Subjects with TEAEs of maximum severity mild” value [1, 4] was 33%, the “Subjects with TEAEs of maximum severity mild, number” value [1, 4] was 10 n and the “Subjects with TEAEs of maximum severity moderate” value [1, 4] was 13%. For the same compound, the “Subjects with TEAEs of maximum severity moderate, number” value [1, 4] was 4 n, the “Subjects with TEAEs related to the study drug” value [1, 4] was 40% and the “Subjects with TEAEs related to the study drug, number” value [1, 4] was 12 n. The “Constipation (TEAE)” value [1, 5] was 10%, the “Constipation (TEAE), number of subjects” value [1, 5] was 3 n and the “Dry skin (TEAE)” value [1, 5] was 10%. For the same compound, the “Dry skin (TEAE), number of subjects” value [1, 5] was 3 n, the “Epistaxis (TEAE)” value [1, 5] was 10% and the “Epistaxis (TEAE), number of subjects” value [1, 5] was 3 n. The “Papular rash (TEAE)” value [1, 5] was 10%, the “Papular rash (TEAE), number of subjects” value [1, 5] was 3 n and the “Bioavailability profile in plasma and brain” value ([2]; oral 3 mg/kg) was “excellent bioavailability profile”. For the same compound, the Unbound brain concentration ([2]; oral 3 mg/kg, 8 h) was “below the limit of quantitation (BLOQ)”, the “Unbound brain concentration compared to tucatinib” value ([2]; oral, 1 h and 4 h, 3 mg/kg Compound I vs 50 mg/kg tucatinib) was “much higher unbound brain concentration” and the “Unbound plasma concentration relative to tucatinib” value ([2]; oral, 8 h, 3 mg/kg Compound I vs 50 mg/kg tucatinib) was “about 15 fold”. For the same compound, the “Total area under the curve (AUC) higher than that of tucatinib” value ([2]; oral, first eight hours, 3 mg/kg Compound I vs 50 mg/kg tucatinib, brain context) was “about 800%” and the “Blood-brain barrier penetration compared to tucatinib” value ([2]; oral, 3 mg/kg Compound I vs 50 mg/kg tucatinib) was “superior ability of Compound I to penetrate the blood-brain barrier as compared to tucatinib”.
